How the values were obtained:
PAM1154/KPC-2 = assay: Biapenem potentiation MPC64, PAM1154/KPC-2 (efflux deficient); assay type: cell-based, Pseudomonas aeruginosa; conditions: BLI to decrease MIC of biapenem 64-fold; lacking MexAB-OprM
Description: (§1) Efflux of BLIs from Pseudomonas aeruginosa by the MexAB-OprM efflux pump was also evaluated. […] Due to expression of KPC-2 both strains became resistant to biapenem. […] Potency of BLIs to potentiate biapenem in these strains was determined. […] The ratio of MPC64 values for each BLI in PAM1032/KPC-2 (efflux proficient) and PAM1154/KPC-2 (efflux deficient) was determined to generate the Efflux Index (EI).

KP1086 (OXA-48) = assay: Biapenem potentiation (MPC@1), KP1086; conditions: BLI with biapenem at 1 μg/mL
KP1010 (SHV-12) [1] = assay: Aztreonam potentiation (MPC@4), KP1010; assay type: cell-based
ECL1002 [2] = assay: Aztreonam potentiation (MPC@4), ECL1002; assay type: cell-based; conditions: BLI with aztreonam at 4 μg/mL
KP1005 (CTX-M-14) [3] = assay: Tigemonam potentiation (MPC@4), KP1005; assay type: cell-based; conditions: for TIG MPC4 CTX-M-14 KP1005: BLI with tigemonam at 4 μg/mL
KP1009 (CTX-M-15) [4] = assay: Tigemonam potentiation (MPC@4), KP1009; assay type: cell-based; conditions: for TIG MPC4 CTX-M-15 KP1009: BLI with tigemonam at 4 μg/mL
ec308 (SHV-5) [5] = assay: Tigemonam potentiation (MPC@4), ec308; assay type: cell-based
ECL1002 [6] = assay: Tigemonam potentiation (MPC@4), ECL1002; assay type: cell-based; conditions: for TIG MPC4 ECL1002: BLI with tigemonam at 4 μg/mL
OXA-48 = OXA-48 (Klebsiella pneumoniae, UniProt Q6XEC0); assay: Ki, nitrocefin cleavage by purified enzyme, OXA-48; assay type: biochemical; conditions: nitrocefin reporter substrate; read-out: Ki (OXA-48, NCF)
Chain of OXA-48 (Q6XEC0 23-265, looked up, species assumed): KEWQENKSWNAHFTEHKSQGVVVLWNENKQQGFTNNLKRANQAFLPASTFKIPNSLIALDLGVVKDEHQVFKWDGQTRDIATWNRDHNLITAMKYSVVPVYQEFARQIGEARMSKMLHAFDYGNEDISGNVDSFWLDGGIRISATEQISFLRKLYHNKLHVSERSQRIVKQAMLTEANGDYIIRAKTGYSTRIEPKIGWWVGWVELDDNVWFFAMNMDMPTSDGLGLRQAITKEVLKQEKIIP
Outline: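 Readout: nitrocefin hydrolysis, A490 recorded every 10 sec over 10 min. Enzyme and inhibitor (varied concentrations) preincubated 10 min, RT, in reaction buffer before substrate addition.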

KP1010 (SHV-12) [7] = assay: Tigemonam potentiation (MPC@4), KP1010; assay type: cell-based
ec302 (TEM-10) [8] = assay: Tigemonam potentiation (MPC@4), ec302; assay type: cell-based
EC1010 (CMY-6) [9] = assay: organism not typed; assay type: cell-based
PAM1032/KPC-2 = assay: Biapenem potentiation MPC64, PAM1032/KPC-2 (efflux proficient); assay type: cell-based, Pseudomonas aeruginosa; conditions: BLI to decrease MIC of biapenem 64-fold; MexAB-OprM overexpressed
Description: as §1

KP1004 (KPC-2) = assay: Biapenem potentiation (MPC@1), KP1004; conditions: BLI with biapenem at 1 μg/mL
KP1009 (CTX-M-15) [10] = assay: organism not typed; assay type: cell-based
KP1005 (CTX-M-14) [11] = assay: Aztreonam potentiation (MPC@4), KP1005; assay type: cell-based; conditions: BLI with aztreonam at 4 μg/mL
ec302 (TEM-10) [12] = assay: Aztreonam potentiation (MPC@4), ec302; assay type: cell-based; conditions: BLI with aztreonam at 4 μg/mL
ec308 (SHV-5) [13] = assay: Aztreonam potentiation (MPC@4), ec308; assay type: cell-based; conditions: BLI with aztreonam at 4 μg/mL
[14] = Intravenous pharmacokinetics; assay type: in vivo; conditions: rat, plasma; rats, 20 mg/kg, intravenous infusion over 0.5 hours; read-out: Free Cl (converted)
Description: Rats (n=3 per compound) were administered by a single infusion. Intravenous doses were infused over 0.5 hours via an indwelling femoral vein cannula. […] (˜0.3 mL) samples were collected from each rat at designated time points up to 24 hours. Blood samples were centrifuged within 5 min of collection at 12000 g for 5 min to obtain plasma. The plasma samples were stored at −80° C. until analyzed. Data were analyzed using WinNonlin. The doses of all compounds tested were 20 mg/kg.

EC1010 (CMY-6) [15] = assay: Tigemonam potentiation (MPC@4), EC1010; assay type: cell-based; conditions: tigemonam alone
[16] = test system: strains overexpressing class A (ESBL) and class C beta-lactamases; assay: Tigemonam MIC of test strains; assay type: cell-based; conditions: across the test strains

O=CN[C@H]1Cc2cccc(C(=O)O)c2OB1O [F, reference compound]
PAM1154/KPC-2 Biapenem MPC64 (PAM1154/KPC-2): 1.25 | BPM MPC1 OXA-48 KP1086 (KP1086 (OXA-48)): Y (MIC of 1 μg/mL to 10 μg/mL) | AZT MPC4 SHV-12 KP1010 (KP1010 (SHV-12) [1]): Y (key: X: MIC of less than 1 ng/mL; Y: MIC of 1 μg/mL to 10 μg/mL; Z: MIC of greater than 10 μg/mL) | AZT MPC4 ECL1002 (ECL1002 [2]): Y (MIC of 1 μg/mL to 10 μg/mL) | TIG MPC4 CTX-M-14 KP1005 (KP1005 (CTX-M-14) [3]): Y (MIC of 1 μg/mL to 10 μg/mL) | TIG MPC4 CTX-M-15 KP1009 (KP1009 (CTX-M-15) [4]): Y (MIC of 1 μg/mL to 10 μg/mL) | TIG MPC4 SHV-5 ec308 (ec308 (SHV-5) [5]): Y (key: X: MIC of less than 1 ng/mL; Y: MIC of 1 μg/mL to 10 μg/mL; Z: MIC of greater than 10 μg/mL) | TIG MPC4 ECL1002 (ECL1002 [6]): X (MIC of less than 1 μg/mL) | Ki (OXA-48): < 1 nM | TIG MPC4 SHV-12 KP1010 (KP1010 (SHV-12) [7]): Y (key: X: MIC of less than 1 ng/mL; Y: MIC of 1 μg/mL to 10 μg/mL; Z: MIC of greater than 10 μg/mL) | TIG MPC4 TEM-10 ec302 (ec302 (TEM-10) [8]): Z (key: X: MIC of less than 1 ng/mL; Y: MIC of 1 μg/mL to 10 μg/mL; Z: MIC of greater than 10 μg/mL) | AZT MPC4 CMY-6 EC1010 (EC1010 (CMY-6) [9]): Y (key: X: MIC of less than 1 ng/mL; Y: MIC of 1 μg/mL to 10 μg/mL; Z: MIC of greater than 10 μg/mL) | PAM1032/KPC-2 Biapenem MPC64 (PAM1032/KPC-2): 5 | BPM MPC1 KP1004 KPC-2 (KP1004 (KPC-2)): X (MIC of less than 1 μg/mL) | AZT MPC4 CTX-M-15 KP1009 (KP1009 (CTX-M-15) [10]): Y (key: X: MIC of less than 1 ng/mL; Y: MIC of 1 μg/mL to 10 μg/mL; Z: MIC of greater than 10 μg/mL) | AZT MPC4 CTX-M-14 KP1005 (KP1005 (CTX-M-14) [11]): Y (MIC of 1 μg/mL to 10 μg/mL) | AZT MPC4 TEM-10 ec302 (ec302 (TEM-10) [12]): Z (MIC of greater than 10 μg/mL) | AZT MPC4 SHV-5 ec308 (ec308 (SHV-5) [13]): Y (MIC of 1 μg/mL to 10 μg/mL)

O=C(Cc1cccs1)N[C@H]1Cc2cccc(C(=O)O)c2OB1O [I, reference compound]
BPM MPC1 OXA-48 KP1086 (KP1086 (OXA-48)): Y (MIC of 1 μg/mL to 10 μg/mL) | clearance [14]: 136 mL/min/kg | AZT MPC4 SHV-12 KP1010 (KP1010 (SHV-12) [1]): X (key: X: MIC of less than 1 ng/mL; Y: MIC of 1 μg/mL to 10 μg/mL; Z: MIC of greater than 10 μg/mL) | TIG MPC4 CTX-M-14 KP1005 (KP1005 (CTX-M-14) [3]): Y (MIC of 1 μg/mL to 10 μg/mL) | TIG MPC4 CTX-M-15 KP1009 (KP1009 (CTX-M-15) [4]): Y (MIC of 1 μg/mL to 10 μg/mL) | TIG MPC4 SHV-5 ec308 (ec308 (SHV-5) [5]): X (key: X: MIC of less than 1 μg/mL; Y: MIC of 1 μg/mL to 10 μg/mL; Z: MIC of greater than 10 μg/mL) | TIG MPC4 ECL1002 (ECL1002 [6]): X (MIC of less than 1 μg/mL) | TIG MPC4 SHV-12 KP1010 (KP1010 (SHV-12) [7]): X (key: X: MIC of less than 1 μg/mL; Y: MIC of 1 μg/mL to 10 μg/mL; Z: MIC of greater than 10 μg/mL) | TIG MPC4 TEM-10 ec302 (ec302 (TEM-10) [8]): Z (key: X: MIC of less than 1 ng/mL; Y: MIC of 1 μg/mL to 10 μg/mL; Z: MIC of greater than 10 μg/mL) | AZT MPC4 CMY-6 EC1010 (EC1010 (CMY-6) [9]): Y (key: X: MIC of less than 1 ng/mL; Y: MIC of 1 μg/mL to 10 μg/mL; Z: MIC of greater than 10 μg/mL) | PAM1032/KPC-2 Biapenem MPC64 (PAM1032/KPC-2): 80 | BPM MPC1 KP1004 KPC-2 (KP1004 (KPC-2)): X (MIC of less than 1 μg/mL) | AZT MPC4 CTX-M-15 KP1009 (KP1009 (CTX-M-15) [10]): Y (key: X: MIC of less than 1 ng/mL; Y: MIC of 1 μg/mL to 10 μg/mL; Z: MIC of greater than 10 μg/mL) | AZT MPC4 SHV-5 ec308 (ec308 (SHV-5) [13]): X (MIC of less than 1 ng/mL)

CC1(C)[C@H](NC(=O)/C(=N\OCC(=O)O)c2csc(N)n2)C(=O)N1OS(=O)(=O)O [Tigemonam, reference compound]
Tigemonam MIC KP1005 (KP1005 (CTX-M-14) [3]; tigemonam alone): Z (MIC of greater than 10 μg/mL) | Tigemonam MIC KP1009 (KP1009 (CTX-M-15) [4]; tigemonam alone): Z (MIC of greater than 10 μg/mL) | Tigemonam MIC ec308 (ec308 (SHV-5) [5]; tigemonam alone): Z (MIC of greater than 10 μg/mL) | Tigemonam MIC ECL1002 (ECL1002 [6]; tigemonam alone): Z (MIC of greater than 10 μg/mL) | Tigemonam MIC EC1010 (EC1010 (CMY-6) [15]): Z (MIC of greater than 10 μg/mL) | Tigemonam MIC KP1010 (KP1010 (SHV-12) [7]; tigemonam alone): Z (MIC of greater than 10 μg/mL) | Tigemonam MIC ec302 (ec302 (TEM-10) [8]; tigemonam alone): Z (MIC of greater than 10 μg/mL) | Tigemonam MICs of test strains [16]: ≥ 16 µg/mL
